Assay results from the supplement of paper PMC10307832.

Assays:
Experiment in all cases: relative viability (nuclei count vs DMSO), 5 days (fraction); higher = more cells survive
ABC-1 = system: ABC-1
Procedure, shortened: (§1)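 Lung cancer cell lines were pin-tool dosed in 1536-well plates on the day after seeding, with either a lone drug or a fixed anchor-drug dose plus five library-drug doses (not always all listed) in √10 steps. Nuclei were counted on 4× images after 5 days. Relative viability is the ratio of treated-well to vehicle-well nuclei counts, with each value a median of duplicate plates.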

CAL-12T = system: CAL-12T
Procedure, shortened: as §1

COR-L23 = system: COR-L23
Procedure, shortened: as §1

EMC-BAC-2 = system: EMC-BAC-2
Procedure, shortened: as §1

HARA = system: HARA
Procedure, shortened: as §1

HCC-366 = system: HCC-366
Procedure, shortened: as §1

HOP-62 = system: HOP-62
Procedure, shortened: as §1

LK-2 = system: LK-2
Procedure, shortened: as §1

NCI-H1437 = system: NCI-H1437
Procedure, shortened: as §1

NCI-H1563 = system: NCI-H1563
Procedure, shortened: as §1

NCI-H1650 = system: NCI-H1650
Procedure, shortened: as §1

NCI-H1651 = system: NCI-H1651
Procedure, shortened: as §1

NCI-H1734 = system: NCI-H1734
Procedure, shortened: as §1

NCI-H1755 = system: NCI-H1755
Procedure, shortened: as §1

NCI-H2347 = system: NCI-H2347
Procedure, shortened: as §1

NCI-H3122 = system: NCI-H3122
Procedure, shortened: as §1

NCI-H441 = system: NCI-H441
Procedure, shortened: as §1

NCI-H596 = system: NCI-H596
Procedure, shortened: as §1

NCI-H727 = system: NCI-H727
Procedure, shortened: as §1

PC-3 [JPC-3] = system: PC-3 [JPC-3]
Procedure, shortened: as §1

RERF-LC-KJ = system: RERF-LC-KJ
Procedure, shortened: as §1

SK-LU-1 = system: SK-LU-1
Procedure, shortened: as §1

UMC-11 = system: UMC-11
Procedure, shortened: as §1

Question: Which results are given for `CN1CCN(CCOc2cc(OC3CCOCC3)c3c(Nc4c(Cl)ccc5c4OCO5)ncnc3c2)CC1` [Saracatinib] + Cc1nc(Nc2ncc(C(=O)Nc3c(C)cccc3Cl)s2)cc(N2CCN(CCO)CC2)n1 [Dasatinib] (partner 0.075 µM)?
Answer: relative viability (ABC-1; first compound 0.02 µM): 0.673; relative viability (ABC-1; first compound 0.2 µM): 0.591; relative viability (ABC-1; first compound 0.6325 µM): 0.616; relative viability (ABC-1; first compound 2 µM): 0.514; relative viability (CAL-12T; first compound 0.02 µM): 0.593; relative viability (CAL-12T; first compound 0.2 µM): 0.451; relative viability (CAL-12T; first compound 0.6325 µM): 0.47; relative viability (CAL-12T; first compound 2 µM): 0.294; relative viability (COR-L23; first compound 0.02 µM): 0.553; relative viability (COR-L23; first compound 0.2 µM): 0.533; relative viability (COR-L23; first compound 0.6325 µM): 0.542; relative viability (COR-L23; first compound 2 µM): 0.478; relative viability (EMC-BAC-2; first compound 0.02 µM): 0.321; relative viability (EMC-BAC-2; first compound 0.2 µM): 0.286; relative viability (EMC-BAC-2; first compound 0.6325 µM): 0.324; relative viability (EMC-BAC-2; first compound 2 µM): 0.294; relative viability (HARA; first compound 0.02 µM): 0.225; relative viability (HARA; first compound 0.2 µM): 0.224; relative viability (HARA; first compound 0.6325 µM): 0.272; relative viability (HARA; first compound 2 µM): 0.23; relative viability (HCC-366; first compound 0.02 µM): 0.636; relative viability (HCC-366; first compound 0.6325 µM): 0.678; relative viability (HCC-366; first compound 2 µM): 0.607; relative viability (HOP-62; first compound 0.02 µM): 0.757; relative viability (HOP-62; first compound 0.2 µM): 0.663; relative viability (HOP-62; first compound 0.6325 µM): 0.766; relative viability (HOP-62; first compound 2 µM): 0.636; relative viability (LK-2; first compound 0.02 µM): 0.275; relative viability (LK-2; first compound 0.2 µM): 0.288; relative viability (LK-2; first compound 0.6325 µM): 0.345; relative viability (LK-2; first compound 2 µM): 0.376; relative viability (NCI-H1437; first compound 0.02 µM): 0.494; relative viability (NCI-H1437; first compound 0.2 µM): 0.283; relative viability (NCI-H1437; first compound 0.6325 µM): 0.389; relative viability (NCI-H1437; first compound 2 µM): 0.289; relative viability (NCI-H1563; first compound 0.02 µM): 0.463; relative viability (NCI-H1563; first compound 0.2 µM): 0.39; relative viability (NCI-H1563; first compound 0.6325 µM): 0.437; relative viability (NCI-H1563; first compound 2 µM): 0.397; relative viability (NCI-H1650; first compound 0.02 µM): 0.378; relative viability (NCI-H1650; first compound 0.2 µM): 0.299; relative viability (NCI-H1650; first compound 0.6325 µM): 0.359; relative viability (NCI-H1650; first compound 2 µM): 0.371; relative viability (NCI-H1651; first compound 0.02 µM): 0.565; relative viability (NCI-H1651; first compound 0.2 µM): 0.37; relative viability (NCI-H1651; first compound 0.6325 µM): 0.439; relative viability (NCI-H1651; first compound 2 µM): 0.406; relative viability (NCI-H1734; first compound 0.02 µM): 0.455; relative viability (NCI-H1734; first compound 0.6325 µM): 0.49; relative viability (NCI-H1734; first compound 2 µM): 0.469; relative viability (NCI-H1755; first compound 0.02 µM): 0.422; relative viability (NCI-H1755; first compound 0.2 µM): 0.318; relative viability (NCI-H1755; first compound 0.6325 µM): 0.439; relative viability (NCI-H1755; first compound 2 µM): 0.404; relative viability (NCI-H2347; first compound 0.02 µM): 0.305; relative viability (NCI-H2347; first compound 0.2 µM): 0.293; relative viability (NCI-H2347; first compound 0.6325 µM): 0.32; relative viability (NCI-H2347; first compound 2 µM): 0.346; relative viability (NCI-H3122; first compound 0.02 µM): 0.879; relative viability (NCI-H3122; first compound 0.2 µM): 0.666; relative viability (NCI-H3122; first compound 0.6325 µM): 0.562; relative viability (NCI-H3122; first compound 2 µM): 0.655; relative viability (NCI-H441; first compound 0.02 µM): 0.615; relative viability (NCI-H441; first compound 0.2 µM): 0.442; relative viability (NCI-H441; first compound 0.6325 µM): 0.715; relative viability (NCI-H441; first compound 2 µM): 0.549; relative viability (NCI-H596; first compound 0.02 µM): 0.558; relative viability (NCI-H596; first compound 0.2 µM): 0.659; relative viability (NCI-H596; first compound 0.6325 µM): 0.607; relative viability (NCI-H596; first compound 2 µM): 0.57; relative viability (NCI-H727; first compound 0.02 µM): 0.396; relative viability (NCI-H727; first compound 0.2 µM): 0.377; relative viability (NCI-H727; first compound 0.6325 µM): 0.564; relative viability (NCI-H727; first compound 2 µM): 0.356; relative viability (PC-3 [JPC-3]; first compound 0.02 µM): 0.941; relative viability (PC-3 [JPC-3]; first compound 0.2 µM): 0.952; relative viability (PC-3 [JPC-3]; first compound 0.6325 µM): 0.682; relative viability (PC-3 [JPC-3]; first compound 2 µM): 0.595; relative viability (RERF-LC-KJ; first compound 0.02 µM): 0.883; relative viability (RERF-LC-KJ; first compound 0.2 µM): 0.797; relative viability (RERF-LC-KJ; first compound 0.6325 µM): 0.695; relative viability (RERF-LC-KJ; first compound 2 µM): 0.676; relative viability (SK-LU-1; first compound 0.02 µM): 0.148; relative viability (SK-LU-1; first compound 0.2 µM): 0.14; relative viability (SK-LU-1; first compound 0.6325 µM): 0.138; relative viability (SK-LU-1; first compound 2 µM): 0.146; relative viability (UMC-11; first compound 0.02 µM): 0.471; relative viability (UMC-11; first compound 0.6325 µM): 0.543; relative viability (UMC-11; first compound 2 µM): 0.473
